“And” between values parts separate entries of the source, which are not always exact repeats. Equal values may be shown once.
What was measured:
[1] = target: T1, Recombinant human PAD2 (residues 1-665) (Homo sapiens, UniProt Q9Y2J8); test: PAD2 enzyme assay (FLINT NH3 release, BAEE substrate); format: biochemical; conditions: PAD2 enzyme assay above or similar assays; to assess selectivity for PAD4 over PAD2; read-out: mean pIC50 (converted)
T1 construct: Recombinant human PAD2 (residues 1-665) was expressed in baculovirus-infected Sf9 insect cells; 6His-FLAG (N); made in house; host or cells: baculovirus-infected Sf9 insect cells
T1 sequence (Q9Y2J8 whole entry, the tested form may be a part): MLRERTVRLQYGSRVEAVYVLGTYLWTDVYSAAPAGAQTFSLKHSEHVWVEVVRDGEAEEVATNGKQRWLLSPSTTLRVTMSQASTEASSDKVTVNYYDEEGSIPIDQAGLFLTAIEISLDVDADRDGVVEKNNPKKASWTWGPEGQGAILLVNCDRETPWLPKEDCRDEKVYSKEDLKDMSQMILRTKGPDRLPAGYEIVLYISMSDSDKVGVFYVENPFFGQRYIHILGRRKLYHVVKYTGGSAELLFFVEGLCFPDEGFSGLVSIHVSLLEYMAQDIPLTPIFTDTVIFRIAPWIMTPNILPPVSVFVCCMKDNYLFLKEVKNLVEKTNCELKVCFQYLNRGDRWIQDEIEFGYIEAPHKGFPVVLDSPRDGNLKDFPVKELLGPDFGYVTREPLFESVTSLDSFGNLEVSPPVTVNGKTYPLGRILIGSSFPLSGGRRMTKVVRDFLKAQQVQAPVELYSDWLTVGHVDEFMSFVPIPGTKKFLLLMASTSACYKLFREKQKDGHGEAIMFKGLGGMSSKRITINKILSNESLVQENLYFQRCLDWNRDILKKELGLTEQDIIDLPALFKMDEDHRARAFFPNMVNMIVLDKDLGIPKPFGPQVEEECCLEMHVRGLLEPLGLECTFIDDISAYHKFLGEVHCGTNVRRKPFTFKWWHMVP
Description: Activity of the final product was determined using a FLINT NH3 release assay.
8 μl of PAD2 enzyme diluted to an assay concentration of 30 nM in assay buffer (100 mM HEPES, 50 mM NaCl, 2 mM DTT, 7.5% glycerol and 1.5 mM CHAPS pH 8), and added to wells containing 0.1 μl of various concentrations of compound or DMSO vehicle (0.8% final) in a Greiner high volume 384 well black plate. […] The reaction was stopped after 90 mins with the addition of […] stop/detection buffer containing 50 mM EDTA, 2.6 mM phthalaldehyde and 2.6 mM DTT.

[2] = target: T2, Recombinant human PAD4 (residues 1-663) (Homo sapiens, UniProt Q9UM07); test: PAD4 enzyme assay (FLINT NH3 release, BAEE substrate; conditions A or B); format: biochemical; conditions: PAD4 enzyme assay above or similar assays; read-out: mean pIC50 (converted)
T2 construct: Recombinant human PAD4 (residues 1-663) was expressed in E. coli as an N-terminal GST-tagged fusion protein; GST (N, cleaved yes); made in house; host or cells: E. coli
T2 sequence (Q9UM07 whole entry, the tested form may be a part): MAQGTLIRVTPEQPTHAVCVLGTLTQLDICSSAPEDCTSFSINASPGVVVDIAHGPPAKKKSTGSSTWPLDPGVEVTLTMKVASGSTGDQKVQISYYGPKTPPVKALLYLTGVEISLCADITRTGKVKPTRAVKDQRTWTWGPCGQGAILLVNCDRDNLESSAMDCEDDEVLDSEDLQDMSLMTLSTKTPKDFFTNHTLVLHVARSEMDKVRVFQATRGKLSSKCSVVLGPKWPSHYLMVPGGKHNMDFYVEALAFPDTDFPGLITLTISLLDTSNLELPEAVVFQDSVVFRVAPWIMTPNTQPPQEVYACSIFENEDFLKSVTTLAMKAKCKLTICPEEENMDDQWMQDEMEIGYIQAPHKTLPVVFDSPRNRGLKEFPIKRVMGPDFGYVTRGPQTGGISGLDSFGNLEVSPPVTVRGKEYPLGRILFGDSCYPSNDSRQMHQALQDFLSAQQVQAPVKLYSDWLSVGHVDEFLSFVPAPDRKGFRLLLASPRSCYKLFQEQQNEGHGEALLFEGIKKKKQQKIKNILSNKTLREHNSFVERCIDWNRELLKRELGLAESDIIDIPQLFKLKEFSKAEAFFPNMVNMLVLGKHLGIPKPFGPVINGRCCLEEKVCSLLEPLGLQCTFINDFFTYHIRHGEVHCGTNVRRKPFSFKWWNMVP
Description: During purification of the protein, the GST tag was removed by cleavage with PreScission Protease (GE Healthcare). Activity of the final PAD4 enzyme and batch consistency was determined by employing the enzyme in the FLINT NH3 release assay in the presence of N-a-benzoyl-L-arginine ethyl ester (BAEE) substrate and measuring the levels of NH3 release at a known substrate/enzyme concentration.
(§1) 8 μl of PAD4 enzyme diluted to an assay concentration of 75 nm in assay buffer (a): (100 mM HEPES, 50 mM NaCl, 2 mM DTT and 0.6 mg/ml BSA pH 8), or in assay buffer (b): (100 mM HEPES, 50 mM NaCl, 2 mM DTT, 7.5% glycerol and 1.5 mM CHAPS pH 8), and added to wells containing 0.1 μl of various concentrations of compound or DMSO vehicle (0.8% final) in a Greiner high volume 384 well black plate. Following 30 mins pre-incubation at rt, the reaction was initiated by the addition of 4 μl of substrate buffer containing 3 mM N-a-benzoyl-L-arginine ethyl ester (BAEE), 100 mM HEPES, 50 mM NaCl, 600 uM CaCl2 (2H2O) and 2 mM DTT, pH 8.0. The reaction was stopped after 100 mins with the addition of 38 μl stop/detection buffer containing 50 mM EDTA, 2.6 mM phthalaldehyde and 2.6 mM DTT.
as §1, with “of 30 nM” for “of 75 nm”, “buffer” for “buffer (a):”, “BSA” for “BSA pH 8), or in assay buffer (b): (100 mM HEPES, 50 mM NaCl, 2 mM DTT, 7.5% glycerol and 1.5 mM CHAPS”, “after 60” for “after 100”

Row | IC50 [1] | IC50 [2] | Compound
1 | > 79400 nM | 39.8 to 398 nM and 158 nM | Cn1c(-c2cc3ccccc3n2CC2CC2)nc2cc(C(=O)N3CC[C@@H](O)[C@@H](N)C3)ccc21 [Example 65, ((3S,4R)-3-Amino-4-hydroxypiperidin-1-yl)(2-(1-(cyclopropylmethyl)-1H-indol-2-yl)-1-methyl-1H-benzo[d]imidazol-5-yl)methanone]
2 | – | 39.8 to 398 nM and 158 nM | Cn1c(-c2cc3ccccc3n2Cc2ccccc2)nc2cc(C(=O)N3CCC[C@@H](N)C3)ccc21 [Example 24, (3R)-1-({1-Methyl-2-[1-(phenylmethyl)-1H-indol-2-yl]-1H-benzimidazol-5-yl}carbonyl)-3-piperidinamine]
3 | – | 39.8 to 398 nM and 398 nM | Cn1c(-c2cc3ccccc3n2Cc2cccnc2)nc2cc(C(=O)N3CCC[C@@H](N)C3)ccc21 [Example 15, (3R)-1-({1-Methyl-2-[1-(3-pyridinylmethyl)-1H-indol-2-yl]-1H-benzimidazol-5-yl}carbonyl)-3-piperidinamine]
4 | – | 39.8 to 398 nM and 398 nM | Cn1cc(Cn2c(-c3nc4cc(C(=O)N5CCC[C@@H](N)C5)ccc4n3C)cc3ccccc32)cn1 [Example 20b, (3R)-1-[(1-Methyl-2-{1-[(1-methyl-1H-pyrazol-4-yl)methyl]-1H-indol-2-yl}-1H-benzimidazol-5-yl)carbonyl]-3-piperidinamine]
